Columns and labels:
HL-60 = test: Cytotoxicity against human HL60 cells after 2 days by MTT assay; format: functional, cell-based; conditions: HL-60, 48 h
[1] = biological target: T1, Proteasome Macropain subunit MB1 (Homo sapiens, UniProt P28074); test: Inhibition of human erythrocyte 20s proteasome chymotrypsin-like activity using Suc-LLVY-MCA as substrate pretreated for 10 mins followed by substrate addition measured after 3 hrs by spectrophotometric method
T1 sequence (P28074 whole entry): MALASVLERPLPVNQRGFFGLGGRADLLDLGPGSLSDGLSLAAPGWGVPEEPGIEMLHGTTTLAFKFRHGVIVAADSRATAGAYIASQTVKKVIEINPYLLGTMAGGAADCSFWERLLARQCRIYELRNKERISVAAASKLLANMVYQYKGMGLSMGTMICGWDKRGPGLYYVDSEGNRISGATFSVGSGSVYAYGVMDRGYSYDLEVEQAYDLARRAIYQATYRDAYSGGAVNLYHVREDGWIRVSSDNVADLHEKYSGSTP

IC50 [1]: 18.5 µM
SMILES: C=C1CC[C@H]2C(C)(C)[C@H](O)CC[C@]2(C)[C@H]1CC1=C(O)C(=O)C2=C(C1=O)[C@@]13C=C[C@@H](O)[C@H](O)[C@]1(C2)C(=O)c1c(O)cc(C)cc1C3=O
IC50 (HL-60): 9.3 µM
